Patent US20090227575A1, “7H-PYRROLO[2,3-H]QUINAZOLINE COMPOUNDS, THEIR USE AS mTOR KINASE AND PI3 KINASE INHIBITORS, AND THEIR [sequence]” (Wyeth, priority 2008, published 2009)

Legend:
Format in all cases: biochemical
PI3K-alpha = PI3K-alpha (Homo sapiens, UniProt P42336); assay: PI3K-alpha fluorescence polarization assay; conditions: read-out: PI3 Kinase α IC50
Protocol: (§1) The reaction buffer was 20 mM HEPES, pH 7.5, 2 mM MgCl2, 0.05% CHAPS; and 0.01% βME (added fresh). The Stop/Detection Buffer was 100 mM HEPES, pH 7.5, 4 mM EDTA, 0.05% CHAPS; ATP 20 mM in water; PIP2 (diC8, Echelon, Salt Lake City Utah cat #P-4508) 1 mM in water (MW=856.5). The GST-GRP was 1.75 mg/mL or 1.4 mg/mL in 10% glycerol. The Red detector (TAMRA) was 2.5 μM. Nunc 384-well black polypropylene fluorescent plates were used for PI3K assays.
(§2) The assay is run by placing 5 μL of diluted enzyme per well, then 5 μL of diluted compound (or 9.5 μL enzyme then 0.5 μL compound in DMSO) is added and mixed. Then, 10 μL substrate is added to start the reaction. The samples are incubated 30-60 minutes, then the reaction is stopped by adding 20 μL stop/detector mix. PI3K is diluted with reaction buffer (e.g., 5 μL or 7.5 μL PI3K into 620 μL reaction buffer), and 5 μL of diluted enzyme is used per well. A 5 μL portion of reaction buffer or of drug diluted in buffer (e.g., 4 μL/100 so final DMSO is 1% in reaction) is added to each. Pipetting up and down mixes the samples. Alternatively, the enzyme can be diluted to 1215 μL. In this case 9.8 μL is added per well and 0.2 μL compound is added in DMSO.
(§3) To prepare 1 mL of substrate solution, 955 μL reaction buffer, 40 μL PIP2, and 2.5 μL ATP are mixed. 10 μL of substrate is added to each well to start the reaction. […] The stop/detector mix is prepared by mixing 4 μL Red detector and 1.6 μL or 2.0 μL GST-GRP with 1 mL stop buffer, which results in 10 nM probe and 70 nM GST-GRP. 20 μL of the stop/detector mix is added to each well to stop the reaction. The plates are read after 30-90 minutes keeping the red probe solutions dark. For the zero time point, stop/detector mix is added to the enzyme just before adding substrate. For an extra control, stop/detector mix is added to buffer (no enzyme) and substrate or to just buffer (no substrate). […] The recommended reaction has 0.06 μL per 20 μL (0.015 μg/20 μL) or 0.01125 μg/15 μL or 0.75 μg/mL.
(§4) Plates are read on machines with filters for TAMRA. The units are mP with no enzyme controls reading app 190-220 mP units. Fully active enzyme reduces fluorescence polarization down to 70-100 mP after 30 minutes. An active compound raises the mP values halfway to control or to 120-150 mP units.

PI3K-gamma = PI3K-gamma (Homo sapiens, UniProt P48736); assay: PI3K-gamma fluorescence polarization assay; conditions: read-out: PI3 Kinase γ IC50
Protocol: as §1, §2, §3, §4

Human mTOR = Human mTOR (Homo sapiens, UniProt P42345); assay: mTOR kinase assay (DELFIA format, purified enzyme); design: FLAG; conditions: read-out: TOR Kinase IC50

Sequence of PI3K-alpha (P42336 whole entry, species assumed): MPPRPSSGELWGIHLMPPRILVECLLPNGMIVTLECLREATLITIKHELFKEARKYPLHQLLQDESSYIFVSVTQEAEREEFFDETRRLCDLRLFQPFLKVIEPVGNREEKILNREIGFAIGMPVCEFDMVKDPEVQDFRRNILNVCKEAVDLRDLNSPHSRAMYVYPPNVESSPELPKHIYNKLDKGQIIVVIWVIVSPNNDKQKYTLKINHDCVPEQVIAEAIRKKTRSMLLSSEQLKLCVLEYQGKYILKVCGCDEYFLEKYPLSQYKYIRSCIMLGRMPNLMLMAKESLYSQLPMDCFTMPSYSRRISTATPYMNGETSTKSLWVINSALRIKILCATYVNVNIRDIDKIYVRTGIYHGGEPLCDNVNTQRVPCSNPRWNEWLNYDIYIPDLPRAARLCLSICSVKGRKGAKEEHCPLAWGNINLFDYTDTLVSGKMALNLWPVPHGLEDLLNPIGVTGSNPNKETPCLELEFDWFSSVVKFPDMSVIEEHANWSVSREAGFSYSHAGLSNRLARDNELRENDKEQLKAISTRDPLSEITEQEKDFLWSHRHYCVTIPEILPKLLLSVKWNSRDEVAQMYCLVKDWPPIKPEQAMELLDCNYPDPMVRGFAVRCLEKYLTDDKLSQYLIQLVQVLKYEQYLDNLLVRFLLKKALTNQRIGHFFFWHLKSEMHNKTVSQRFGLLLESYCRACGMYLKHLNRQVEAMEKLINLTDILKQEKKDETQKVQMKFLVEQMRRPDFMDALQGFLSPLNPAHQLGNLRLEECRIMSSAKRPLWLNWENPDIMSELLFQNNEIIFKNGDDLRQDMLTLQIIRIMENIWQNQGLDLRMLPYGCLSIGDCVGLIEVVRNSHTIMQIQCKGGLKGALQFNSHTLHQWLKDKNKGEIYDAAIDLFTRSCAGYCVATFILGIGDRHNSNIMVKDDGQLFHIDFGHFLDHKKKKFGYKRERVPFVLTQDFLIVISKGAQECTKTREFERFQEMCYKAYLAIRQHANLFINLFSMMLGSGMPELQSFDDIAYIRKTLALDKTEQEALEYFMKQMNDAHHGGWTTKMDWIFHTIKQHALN
Sequence of PI3K-alpha (P27986 whole entry partner, species assumed): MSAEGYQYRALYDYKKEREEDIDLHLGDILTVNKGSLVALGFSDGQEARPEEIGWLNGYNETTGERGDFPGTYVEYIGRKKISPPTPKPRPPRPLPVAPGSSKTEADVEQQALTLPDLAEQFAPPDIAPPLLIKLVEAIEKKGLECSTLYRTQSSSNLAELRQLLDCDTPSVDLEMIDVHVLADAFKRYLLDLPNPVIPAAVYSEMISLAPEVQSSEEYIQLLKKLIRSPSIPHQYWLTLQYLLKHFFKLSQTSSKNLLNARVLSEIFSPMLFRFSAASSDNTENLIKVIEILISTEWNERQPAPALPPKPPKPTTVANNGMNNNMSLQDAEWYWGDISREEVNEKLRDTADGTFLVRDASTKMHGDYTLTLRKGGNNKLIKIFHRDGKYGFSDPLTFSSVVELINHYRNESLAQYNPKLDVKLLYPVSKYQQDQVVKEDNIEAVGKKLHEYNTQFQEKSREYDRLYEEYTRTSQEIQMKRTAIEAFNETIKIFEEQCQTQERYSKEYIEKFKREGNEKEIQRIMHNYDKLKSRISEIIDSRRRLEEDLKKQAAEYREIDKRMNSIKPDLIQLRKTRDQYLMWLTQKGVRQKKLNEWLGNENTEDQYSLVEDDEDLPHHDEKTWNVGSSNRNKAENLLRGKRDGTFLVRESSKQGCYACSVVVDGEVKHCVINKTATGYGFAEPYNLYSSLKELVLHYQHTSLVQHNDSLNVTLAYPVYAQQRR
Sequence of PI3K-gamma (P48736 whole entry, species assumed): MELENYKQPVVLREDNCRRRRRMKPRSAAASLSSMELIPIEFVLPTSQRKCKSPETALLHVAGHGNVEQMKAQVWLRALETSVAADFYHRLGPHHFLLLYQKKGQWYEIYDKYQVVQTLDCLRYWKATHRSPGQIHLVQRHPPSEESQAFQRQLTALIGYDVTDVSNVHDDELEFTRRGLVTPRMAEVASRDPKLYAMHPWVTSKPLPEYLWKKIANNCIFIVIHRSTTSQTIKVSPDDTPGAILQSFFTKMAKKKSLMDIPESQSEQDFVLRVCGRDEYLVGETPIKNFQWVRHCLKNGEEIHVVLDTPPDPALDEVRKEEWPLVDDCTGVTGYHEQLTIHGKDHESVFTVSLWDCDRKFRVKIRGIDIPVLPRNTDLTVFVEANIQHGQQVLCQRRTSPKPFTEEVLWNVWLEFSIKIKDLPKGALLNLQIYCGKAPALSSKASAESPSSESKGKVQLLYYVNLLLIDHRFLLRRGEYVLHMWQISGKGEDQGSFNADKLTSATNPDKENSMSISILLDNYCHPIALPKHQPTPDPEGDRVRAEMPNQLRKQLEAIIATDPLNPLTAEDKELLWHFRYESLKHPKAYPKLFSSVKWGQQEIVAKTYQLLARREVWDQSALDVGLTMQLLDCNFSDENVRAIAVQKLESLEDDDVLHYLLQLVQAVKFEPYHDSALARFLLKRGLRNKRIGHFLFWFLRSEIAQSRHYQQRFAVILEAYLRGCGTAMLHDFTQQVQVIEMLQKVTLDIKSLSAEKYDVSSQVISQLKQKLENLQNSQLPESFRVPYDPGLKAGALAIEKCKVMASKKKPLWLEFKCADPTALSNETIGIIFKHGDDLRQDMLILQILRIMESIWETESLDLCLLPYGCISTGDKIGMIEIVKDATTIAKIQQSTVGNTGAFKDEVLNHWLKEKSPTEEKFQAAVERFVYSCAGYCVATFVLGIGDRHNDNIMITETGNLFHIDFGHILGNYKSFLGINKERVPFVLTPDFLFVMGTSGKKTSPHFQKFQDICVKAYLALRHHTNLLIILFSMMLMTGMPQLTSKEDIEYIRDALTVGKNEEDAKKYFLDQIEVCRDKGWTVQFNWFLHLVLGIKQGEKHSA

IC50 (PI3K-alpha) [µM]	IC50 (PI3K-gamma) [µM]	IC50 (Human mTOR) [µM]	Compound
6.48	–	0.805	Cn1ccc2c3nc(-c4ccc(N)cc4)nc(N4CCOCC4)c3ccc21 [Example 1, 4-(7-methyl-4-morpholin-4-yl-7H-pyrrolo[2,3-h]quinazolin-2-yl)aniline]
0.428	5.39	0.066	CNC(=O)Nc1ccc(-c2nc(N3CCOCC3)c3ccc4c(ccn4C)c3n2)cc1 [Example 2, 1-methyl-3-[4-(7-methyl-4-morpholin-4-yl-7H-pyrrolo[2,3h]quinazolin-2-yl)phenyl]urea]
2.11	4.04	0.035	CCNC(=O)Nc1ccc(-c2nc(N3CCOCC3)c3ccc4c(ccn4C)c3n2)cc1 [Example 3, 1-ethyl-3-[4-(7-methyl-4-morpholin-4-yl-7H-pyrrolo[2,3-h]quinazolin-2-yl)phenyl]urea]
0.728	2.83	2.05	CN(C)CCNC(=O)Nc1ccc(-c2nc(N3CCOCC3)c3ccc4c(ccn4C)c3n2)cc1 [Example 4, 1-[2-(dimethylamino)ethyl]-3-[4-(7-methyl-4-morpholin-4-yl-7H-pyrrolo[2,3-h]quinazolin-2-yl)phenyl]urea]
2.7	–	2.05	CN(C)CCCNC(=O)Nc1ccc(-c2nc(N3CCOCC3)c3ccc4c(ccn4C)c3n2)cc1 [Example 5, 1-[3-(dimethylamino)propyl]-3-[4-(7-methyl-4-morpholin-4-yl-7H-pyrrolo[2,3-h]quinazolin-2-yl)phenyl]urea]
7.83	> 10	–	Cn1ccc2c3nc(-c4ccc(NS(C)(=O)=O)cc4)nc(N4CCOCC4)c3ccc21 [Example 21, N-[4-(7-methyl-4-morpholin-4-yl-7H-pyrrolo[2,3-h]quinazolin-2-yl)phenyl]methanesulfonamide]
–	–	4	Cn1ccc2c3nc(-c4ccc(C(=O)O)cc4)nc(N4CCOCC4)c3ccc21 [Example 38, 4-(7-methyl-4-morpholin-4-yl-7H-pyrrolo[2,3-h]quinazolin-2-yl)benzoic acid]
–	–	0.021	CCCNC(=O)Nc1ccc(-c2nc(N3CCOCC3)c3ccc4c(ccn4C)c3n2)cc1 [Example 54, 1-[4-(7-methyl-4-morpholin-4-yl-7H-pyrrolo[2,3-h]quinazolin-2-yl)phenyl]-3-propylurea]

More lines, now with the values behind:

Compound	IC50 (PI3K-alpha) [µM]	IC50 (PI3K-gamma) [µM]	IC50 (Human mTOR) [µM]
2-(1H-indol-4-yl)-7-methyl-4-morpholin-5-yl-7H-pyrrolo[2,3-h]quinazoline [Example 49]	6.31	4.66	0.34
3-(7-methyl-4-morpholin-4-yl-7H-pyrrolo[2,3-h]quinazolin-2-yl)aniline [Example 41]	> 10	> 10	1.45
CN1CCN(C(=O)Nc2ccc(-c3nc(N4CCOCC4)c4ccc5c(ccn5C)c4n3)cc2)CC1 [Example 6, 4-methyl-N-[4-(7-methyl-4-morpholin-4-yl-7H-pyrrolo[2,3-h]quinazolin-2-yl)phenyl]piperazine-1-carboxamide]	7.63	–	2.55
Cn1ccc2c3nc(-c4cccc(C(N)=O)c4)nc(N4CCOCC4)c3ccc21 [Example 39, 3-(7-methyl-4-morpholin-4-yl-7H-pyrrolo[2,3-h]quinazolin-2-yl)benzamide]	–	–	1.72
Cn1ccc2c3nc(-c4cccc(C#N)c4)nc(N4CCOCC4)c3ccc21 [Example 40, 3-(7-methyl-4-morpholin-4-yl-7H-pyrrolo[2,3-h]quinazolin-2-yl)benzonitrile]	–	–	2.3
Cn1ccc2c3nc(-c4cnc(O)nc4)nc(N4CCOCC4)c3ccc21 [Example 51, 5-(7-methyl-4-morpholin-4-yl-7H-pyrrolo[2,3-h]quinazolin-2-yl)pyrimidin-2-ol]	> 10	> 10	–
Cn1ccc2c3nc(-c4cccc(F)c4)nc(N4CCOCC4)c3ccc21 [Example 52, 2-(3-fluorophenyl)-7-methyl-4-morpholin-4-yl-7H-pyrrolo[2,3-h]quinazoline]	8.88	3.67	–
